Each structure is given as a SMILES string.

One data set has as its system endothelial tip cells. The data set can be described thus: Filopodia number and length on endothelial tip cells, OIR mouse model. It is filed as in vivo, C57BL/6J mice. The following applies: OIR mice injected with YC-1 [25-100 μl], vs DMSO-treated retinas. The method, then: FIG. 4 the Influence of YC-1 on filopodia number and length. […] Image of tip cells along the leading edge of vascularization from; [A] Non-treated ischemic retinas; [B] DMSO-treated retinas; [C, D, E, and F] represent retinas from animals that were injected with YC-1 [25-100 μl]. Filopodia lengths and number/tip cell were not influenced by DMSO treatment. […] [n=5 per group].
A. Filopodia from DMSO-treated retinas had approximately similar lengths as the nontreated ischemic retinas. […] [ANOVA, ***P<0.001; **P<0.01 between YC-1 and DMSO]. There were 24 tip cells/retina that were averaged. [n=5 per group].
B. DMSO has no influence on the number of filopodia/tip cell. […] [ANOVA, ***P<0.001; **P<0.01 between YC-1 and DMSO]. There were 24 tip cells/retina that were averaged. [n=5 per group].
Retinal NV was induced in newborn mice as described previously. Briefly, P7 mice were exposed with their nursing mother, for 5 days [between P7 and P12] to hyperoxic conditions, by incubating them in an airtight chamber [PROOX 110 chamber O2 controller; Biospherix Ltd., Redfield, N.Y.] ventilated by a mixture of O2 and air to a final oxygen fraction of 75±2%. These incubation conditions induced vaso-obliteration and subsequent cessation of vascular development in the capillary beds of the central retina. […]

The subject of data set [1] is hRMVECs cocultured with rMC-1 cells. The data set can be described thus: Cell migration in a co-culture system model (transwell). The class given is cell-based, human. As to conditions: rMC-1 cells treated with YC-1 100 μM, normoxic and hypoxic conditions. The method, then:
Migration assay of hRMVECs was carried out using the transwell insert with […] pore size. The inserts were coated with Extracellular matrix [ECM] [Millipore, Billerica, Mass.] and airdry up. Chemotaxis was induced by the control r-MClcells or the r-MC1 cells that were treated with YC-1 [100 μM], which were situated in the lower compartment. hRMVECs suspension [final concentration, 5×10^4 cells/well] was added to the upper compartment [FIG. 7B]. After incubated for 24 hours, the filters were washed and then fixed and stained with crystal violet [0.5% crystal violet and 20% methanol] for 30 min at room temperature. The filters were washed with distilled water, and the cells on the upper surface of the inserts were wiped with a cotton swab. The number of cells per field that migrated to the lower surface of the filters was determined microscopically. Five randomly chosen fields were counted per filter. Data were presented as a number of migrated cells [**P<0.01].

The test system of data set [2] is rMC-1 cells.
The next data set deals with macrophages. As to conditions: macrophages stimulated by lipoteichoic acid in vitro, ref [31]; cited from earlier work.
In data set [3] the test system is rMC-1 cells. The data set can be described thus: Real time RT-PCR analysis, in vitro, rMC-1. The class given is cell-based. As for the experimental part:
A transformed Müller cell line [rMC-1] were grown in cell cultures in DMEM supplemented with 15% FBS, as well as with a fungicide mixture and 0.5% gentamicin in a humidified atmosphere of 5% CO2/95% air. Medium was changed every 2-3 days, and cells were grown to confluence in a 150-mm dish. Cells were split into 60-mm dishes and were used in the experiments when confluent. […] cells are immortalized rat retinal neurosensory/neuoroglial progenitor cells, by transfection with Adenovirus 12S E1A into the neonatal retinal tissue. […] cells express genes characteristic of neurons, as well as functional neuronal properties. […] cells were cultured in DMEM/F12 medium in a 1:1 mixture, supplemented with 5% FBS, 1.5 mM L-glutamine, 7.5 mM sodium pyruvate, 0.1 mM nonessential amino acids, 1×MEM, 0.37% sodium bicarbonate and 10 μg/ml gentamicin. Cells were incubated at 37° C. in the presence of 5% CO2. Human retinal microvascular endothelial cells [[…]][40,000 cells/well] were seeded in a 96-well plate and allowed to adhere overnight and incubated at 37° C. in normoxia. Cells were then cultured in 150 μl of CS-C medium supplemented with 10% FBS and in the presence of 1-100 μM YC-1 or DMSO [0.2%]. Cells were placed in airtight chambers [BioSpherix, Redfield, N.Y.] and the O2 tension was maintained at 1.2% by using Pro-Ox Model 110 O2 regulator [BioSpherix, Redfield, N.Y.]. The chamber was purged with a gas mixture of 5.32% CO2, and 93.48% N2. […] We used the primers summarized in [FIG. 6C] for RT-PCR. Gene-specific molecular beacons and primers were designed to encompass the genes of interest, with beacon's annealing site to overlap with the exon-exon junctions for additional specificity [Beacon Designer 6.0, Premier Biosoft International, Palo Alto, Calif., USA]. Threshold cycle [Ct] values for the different samples were utilized for the calculation of gene expression fold change using the formula 2 to the minus power of delta delta ct. Fold changes in the HIF-1, VEGF, PDGF-B, GFAP and iNOS gene relative to the β-actin endogenous control gene were determined by the following equation: fold change=2-Δ[ΔC T], where change in threshold cycle [ΔCT]=CT [gene of interest]-CT [β-actin] and Δ [ΔCT]=ΔCT [treated]-ΔCT [untreated].
Background: In qPCR the cycle at which signal appears reflects the starting amount.

The mark [4] stands for this setting: rMC-1, hypoxia 48 hours, YC-1 25-100 μM, vs DMSO-treated hypoxic cells.

Turning to `OCc1ccc(-c2nn(Cc3ccccc3)c3ccccc23)o1` [YC-1, 3-(5′-hydroxymethyl-2′-furyl)-1-benzylindazole], in the data set with endothelial tip cells, the “number of filopodia on endothelial tip cells” value was “significantly and dose-dependently reduced”; the “total length of filopodia on endothelial tip cells” value was “significantly and dose-dependently reduced”. Also, the “rMC-1 cells-induced hRMVECs migration” value in data set [1] is listed as “significantly attenuated”. Besides, the “cell viability (DAPI exclusion)” value in the data set on rMC-1 cells [2] was “comprised the majority of cells”. For the same compound, in the data set with macrophages, the “expression of iNOS” value is given as “potent activity at abrogating the expression of iNOS”. Moreover, in the data set with rMC-1 cells [3] (setting [4]), the “PDGF-B mRNA level” value is recorded as “significant dose-dependent attenuations”, the “VEGF mRNA level” value was “significant dose-dependent attenuations” and the “iNOS mRNA level” value is reported as “significant dose-dependent attenuations”. Further, in the data set on rMC-1 cells [3] (rMC-1, hypoxia, YC-1 25-100 μM, vs DMSO-treated hypoxic cells, normalized to β-actin), the “GFAP mRNA level” value is recorded as “significant dose-dependent attenuations”. Further, the HIF-1α message level result in the data set on rMC-1 cells [3] (rMC-1, pre- vs post-YC-1 treatment) is recorded as “no differences”.

(Values after patent US20140163082A1, “PYRAZOLYL COMPOUNDS FOR USE IN REVERSING REACTIVE GLIOSIS” (priority 2011, published 2014).)
